Results as given in publication PMC4661406, “Uncovering the Mechanism of Aggregation of Human Transthyretin” (The Journal of Biological Chemistry, 2015).
Where a SMILES comes first, the peptide text is derived from it. [ ]: non-standard residue; d: D form. NMeE = CN[C@@H](CCC(=O)O)C(=O)O; NMeA = CN[C@@H](C)C(=O)O

Assays:
[1] = target: T1, monomeric variant MTTR (Homo sapiens, UniProt P02766, F107M/L130M); assay: Binding of inhibitors to MTTR (unbound fraction by HPLC-MS); details: apparent affinity for all MTTR species in solution (binding to aggregated species not excluded), 0.5 mg/ml MTTR with increasing combined R4PAm and R4PTm, 37 °C, 18 h, 10 mM sodium acetate pH 7.4, 100 mM KCl, 10 mM EDTA, one-site specific binding (GraphPad Prism 6), read-out: apparent binding constant (KD)
T1 construct: made in house; host or cells: Escherichia coli Rosetta(DE3) pLysS, pET24(+) vector
Procedure: The soluble unbound fraction of inhibitors after incubation with the monomeric variant MTTR ([40]) was quantified by HPLC-MS. Samples were made as follows. Soluble TTR at a fixed concentration of 0.5 mg/ml was incubated at 37 °C for 18 h in 10 mM sodium acetate (pH 7.4), 100 mM KCl, 10 mM EDTA with increasing quantities of combined R4PAm and R4PTm. The aggregated fraction was removed by 0.22-μm filtration. The protein fraction containing soluble TTR and inhibitor-bound complexes was then removed by acid precipitation with 1% acetic acid and consecutive ultracentrifugation at 90,000 rpm for 30 min. Neither 0.22-μm filtration nor acid precipitation affected the concentration of the unbound soluble fraction of the peptide inhibitors (data not shown). The unbound soluble fraction of inhibitors was subjected to size exclusion HPLC followed by mass spectrometry. […]
(§1) FIGURE 6. […] A, midpoint temperatures of the thermal unfolding transition (Tm) of wild-type TTR at different conditions were determined by differential scanning calorimetry. […] The unbound fraction of inhibitors was analyzed by HPLC-MS. […] TTR aggregation (TTR agg.) was measured by absorbance at 400 nm with the initial protein amount normalized to 100%. mAU, milli-absorbance units; N.A., not applicable. […]

[2] = tested on: WT TTR; assay: Differential scanning calorimetry of WT TTR with T4 and/or inhibitors; format: binding, human; details: versus WT TTR alone (no T4 before addition); 5:1 molar ratio to TTR monomer; 3.5 M guanidinium chloride, pH 4.3
Procedure: Data were taken with a DSC-II differential scanning calorimeter (Calorimetry Sciences Corp., Lindon, UT). The midpoint temperatures of the thermal unfolding transition (Tm) of wild type and mutants were determined. Thermal denaturation of TTR was irreversible under our conditions ([1], [38]), and absolute thermodynamic parameters were not determined. […] The experiments were performed in 3.5 M guanidinium hydrochloride to depress melting below 100 °C; this guanidinium concentration also solubilized thyroxine. Protein samples were thawed on ice and filtered, and the concentration was measured by UV-visible absorption. Protein samples were diluted to 1 mg/ml in 3.5 M guanidinium chloride, 100 mM sodium acetate (pH 4.3), 100 mM potassium chloride, 1 mM EDTA. A volume of 700 μl of each protein sample was prepared in a 1.5-ml microcentrifuge tube and degassed for 5 min under vacuum while stirring. The reference cell contained only buffer components. […]
as §1

[3] = tested on: transthyretin amyloidosis; details: background statement, refs 16-18 cited in the next sentence; cited from earlier work
Description: Currently, there is no cure for transthyretin amyloidosis, and the treatment for familial cases of ATTR is liver transplantation. […] Several other therapeutics are currently in clinical trials, including other tetramer stabilizers such as diflunisal and RNAi therapies that cause a decrease in the production of TTR protein ([16][–][18]). Additional approaches are needed to prevent ATTR, and here we explore the use of peptide inhibitors that block aggregation of TTR.

[4] = Fibril formation of TTR peptides in isolation (TEM); format: physicochemical; details: PBS pH 7.4, 37 °C, no shaking; TEM after 7 days (methods: incubated 2 weeks); peptide concentration 0.5-17 mM
Procedure: Following dissolution, samples were filtered through a 0.2-μm filter and incubated at 37 °C with no shaking for 2 weeks.
TEM was performed to visualize the fibril formation of TTR proteins and peptides. 5 μl of the sample was spotted onto freshly glow-discharged, carbon-coated EM grids (Ted Pella, Redding, CA). After 3 min of incubation, grids were rinsed three times with 5 μl of distilled water and then stained with 2% uranyl acetate for 2 min. Grids were examined with a T12 Quick CryoEM and CryoET (FEI) transmission electron microscope at an accelerating voltage of 120 kV. Digital images were recorded using a Gatan 2,048 × 2,048 charge-coupled device camera.
FIGURE 2. β-Strand F as an aggregation-driving segment in TTR suitable for aggregation inhibitor design. […] Histograms show percentage of TTR aggregation using WT TTR to normalize to 100%. The aggregation was measured by absorbance of the samples at 400 nm after 4 days of incubation at 37 °C and pH 4.3 with no shaking. […]
FIGURE 3. β-Strand H as a second aggregation-driving segment suitable as a target for aggregation inhibitor design. A, residue solvent-accessible surface area (ASA; Å^2) of TTR was calculated by Areaimol using the structure of WT TTR in three different conformations: tetramer (blue), dimer (black), and monomer (green). […]

Kd [1] [µM]	Compound	fibril formation in isolation [4]	also measured
17.9 ± 6.1	CC(C)[C@H](NC(=O)[C@@H](NC(=O)[C@H](CCC(=O)O)N(C)C(=O)[C@H](C)NC(=O)[C@H](Cc1c[nH]cn1)NC(=O)[C@H](CCC(=O)O)NC(=O)[C@H](Cc1c[nH]cn1)NC(=O)[C@H](Cc1ccccc1)NC(=O)[C@@H]1CCCN1C(=O)[C@H](CCCNC(=N)N)NC(=O)[C@H](CCCNC(=N)N)NC(=O)[C@H](CCCNC(=N)N)NC(=O)[C@@H](N)CCCNC(=N)N)C(C)C)C(=O)N[C@@H](Cc1ccccc1)C(=O)N[C@H](C(=O)N[C@@H](C)C(=O)O)[C@@H](C)O [R4PAm] (H-RRRRPFHEHA[NMeE]VVFTA-OH)		
19.3 ± 6.7	CC(C)[C@H](NC(=O)[C@@H](NC(=O)[C@H](C)N(C)C(=O)[C@@H](NC(=O)[C@@H](NC(=O)[C@H](CO)NC(=O)[C@H](Cc1ccc(O)cc1)NC(=O)[C@H](CO)NC(=O)[C@H](Cc1ccc(O)cc1)NC(=O)[C@@H]1CCCN1C(=O)[C@H](CCCNC(=N)N)NC(=O)[C@H](CCCNC(=N)N)NC(=O)[C@H](CCCNC(=N)N)NC(=O)[C@@H](N)CCCNC(=N)N)[C@@H](C)O)[C@@H](C)O)C(C)C)C(=O)N[C@H](C(=O)N[C@@H](CC(N)=O)C(=O)O)[C@@H](C)O [R4PTm] (H-RRRRPYSYSTT[NMeA]VVTN-OH)		
	NC(Cc1cc(I)c(Oc2cc(I)c(O)c(I)c2)c(I)c1)C(=O)O (stereo not drawn) [T4, thyroxine]		increase in Tm of WT TTR on addition [2]: 10.8 °C
	O=C(O)c1ccc2nc(-c3cc(Cl)cc(Cl)c3)oc2c1 [Tafamidis]		disease progression [3]: delays progression of the disease
	AEVVFT [6-residue TTR segment 91-96 from strand F]	form fibrils in solution by self-aggregation	
	TAVVTN [6-residue TTR segment 119-124 from strand H]	form fibrils in solution by self-aggregation	
